≈ marks a conversion by molar mass, not a printed value.
What was measured:
Experiment in all cases: MIC, broth micro dilution assay (NCCLS)
Assay type in all cases: cell-based
[1] = system: Enterococcus faecalis A20688; details: Mueller-Hinton medium, 35° C., 18 hours
Method: (§1) The serial broth dilution method used Mueller-Hinton medium except for the Streptococcus pneumoniae which was tested in 50% Mueller-Hinton medium and 50% Todd Hewitt medium. The final bacterial inoculate contained approximately 5×10^5 cfu/well and was run on microtiter plates. The volume of each well was 100 μL and the plates were incubated at 35° C. for 18 hours in ambient air. The MIC was defined as the lowest drug concentration that prevented visible growth.

[2] = system: Streptococcus pneumoniae A28272; details: 50% Mueller-Hinton medium and 50% Todd Hewitt medium, 35° C., 18 hours
Method: as §1

[3] = system: Staphylococcus aureus A15090; details: Mueller-Hinton medium, 35° C., 18 hours
Method: as §1

MIC (μg/mL) Enterococcus faecalis A20688 [1]	MIC (μg/mL) Streptococcus pneumoniae A28272 [2]	MIC (μg/mL) Staphylococcus aureus A15090 [3]	Structure (SMILES)
32 µg/mL	0.25 µg/mL	2.0 µg/mL	C=C(NC(=O)c1csc(-c2nc3c(cc2OCCCS(=O)(=O)[O-])-c2nc(cs2)C(=O)NC(C(C)O)C(=O)N/C(=C(\C)OC)c2nc(cs2)C(=O)NC2c4nc(cs4)C(=O)NC(COC(=O)c4c5c6c(cccc6n4O)COC(=O)C(OC4CC(C)(O)C(N(C)C)C(C)O4)C2OC5)c2nc-3cs2)n1)C(N)=O.[Na+] (stereo not drawn) [Example 28]
0.5 µg/mL (≈ 0.305 µM)	0.06 µg/mL (≈ 0.0365 µM)	0.25 µg/mL (≈ 0.152 µM)	C=C(NC(=O)c1csc(-c2nc3c(cc2OC(=O)C(C)(C)C(=O)OCc2ccccc2)-c2nc(cs2)C(=O)NC(C(C)O)C(=O)NC(=C(C)OC)c2nc(cs2)C(=O)NC2c4nc(cs4)C(=O)NC(COC(=O)c4c5c6c(cccc6n4O)COC(=O)C(OC4CC(C)(O)C(N(C)C)C(C)O4)C2OC5)c2nc-3cs2)n1)C(N)=O (stereo not drawn) [Example 31]
1.0 µg/mL (≈ 0.617 µM)	0.015 µg/mL (≈ 0.00926 µM)	1.0 µg/mL (≈ 0.617 µM)	C=C(NC(=O)c1csc(-c2nc3c(cc2OC(=O)c2ccc(Br)cc2)-c2nc(cs2)C(=O)NC(C(C)O)C(=O)NC(=C(C)OC)c2nc(cs2)C(=O)NC2c4nc(cs4)C(=O)NC(COC(=O)c4c5c6c(cccc6n4O)COC(=O)C(OC4CC(C)(O)C(N(C)C)C(C)O4)C2OC5)c2nc-3cs2)n1)C(N)=O (stereo not drawn) [Example 32]
1.0 µg/mL (≈ 0.589 µM)	0.125 µg/mL (≈ 0.0736 µM)	0.25 µg/mL (≈ 0.147 µM)	C=C(NC(=O)c1csc(-c2nc3c(cc2OP(=O)(OCc2ccccc2)OCc2ccccc2)-c2nc(cs2)C(=O)NC(C(C)O)C(=O)NC(=C(C)OC)c2nc(cs2)C(=O)NC2c4nc(cs4)C(=O)NC(COC(=O)c4c5c6c(cccc6n4O)COC(=O)C(OC4CC(C)(O)C(N(C)C)C(C)O4)C2OC5)c2nc-3cs2)n1)C(N)=O (stereo not drawn) [Example 34]
1.0 µg/mL (≈ 0.633 µM)	0.03 µg/mL (≈ 0.019 µM)	1.0 µg/mL (≈ 0.633 µM)	C=C(NC(=O)c1csc(-c2nc3c(cc2OP(=O)(O)OCCCl)-c2nc(cs2)C(=O)NC(C(C)O)C(=O)NC(=C(C)OC)c2nc(cs2)C(=O)NC2c4nc(cs4)C(=O)NC(COC(=O)c4c5c6c(cccc6n4O)COC(=O)C(OC4CC(C)(O)C(N(C)C)C(C)O4)C2OC5)c2nc-3cs2)n1)C(N)=O (stereo not drawn) [Example 35]
0.25 µg/mL (≈ 0.169 µM)	0.007 µg/mL (≈ 0.00472 µM)	0.25 µg/mL (≈ 0.169 µM)	C=C(NC(=O)c1csc(-c2nc3c(cc2O)-c2nc(cs2)C(=O)NC(C(C)O)C(=O)NC(=C(C)OC)c2nc(cs2)C(=O)NC2c4nc(cs4)C(=O)NC(COC(=O)c4c5c6c(cccc6n4OCCO)COC(=O)C(OC4CC(C)(O)C(N(C)C)C(C)O4)C2OC5)c2nc-3cs2)n1)C(N)=O (stereo not drawn) [Example 36]
0.03 µg/mL (≈ 0.0179 µM)	0.001 µg/mL (≈ 0.000595 µM)	0.125 µg/mL (≈ 0.0744 µM)	C=C(NC(=O)c1csc(-c2nc3c(cc2O)-c2nc(cs2)C(=O)NC(C(C)O)C(=O)NC(=C(C)OC)c2nc(cs2)C(=O)NC2c4nc(cs4)C(=O)NC(COC(=O)c4c5c6c(cccc6n4OCC4OC6OC(C)(C)OC6C6OC(C)(C)OC46)COC(=O)C(OC4CC(C)(O)C(N(C)C)C(C)O4)C2OC5)c2nc-3cs2)n1)C(N)=O (stereo not drawn) [Example 38]
0.25 µg/mL (≈ 0.151 µM)	0.015 µg/mL (≈ 0.00904 µM)	0.125 µg/mL (≈ 0.0753 µM)	C=C(NC(=O)c1csc(-c2nc3c(cc2O)-c2nc(cs2)C(=O)NC(C(C)O)C(=O)NC(=C(C)OC)c2nc(cs2)C(=O)NC2c4nc(cs4)C(=O)NC(COC(=O)c4c5c6c(cccc6n4OCOP(=O)(OC(C)(C)C)OC(C)(C)C)COC(=O)C(OC4CC(C)(O)C(N(C)C)C(C)O4)C2OC5)c2nc-3cs2)n1)C(N)=O (stereo not drawn) [Example 40]
1.0 µg/mL (≈ 0.669 µM)	0.06 µg/mL (≈ 0.0401 µM)	0.25 µg/mL (≈ 0.167 µM)	C=C(NC(=O)c1csc(-c2nc3c(cc2O)-c2nc(cs2)C(=O)NC(C(C)O)C(=O)NC(=C(C)OC)c2nc(cs2)C(=O)NC2c4nc(cs4)C(=O)NC(COC(=O)c4c5c6c(cccc6n4OCCCN)COC(=O)C(OC4CC(C)(O)C(N(C)C)C(C)O4)C2OC5)c2nc-3cs2)n1)C(N)=O (stereo not drawn) [Example 42]
0.25 µg/mL	0.03 µg/mL	0.125 µg/mL	C=C(NC(=O)c1csc(-c2nc3c(cc2O)-c2nc(cs2)C(=O)NC(C(C)O)C(=O)NC(=C(C)OC)c2nc(cs2)C(=O)NC2c4nc(cs4)C(=O)NC(COC(=O)c4c5c6c(cccc6n4OCCC(=O)[O-])COC(=O)C(OC4CC(C)(O)C(N(C)C)C(C)O4)C2OC5)c2nc-3cs2)n1)C(N)=O.[Na+] (stereo not drawn) [Example 44]
1.0 µg/mL (≈ 0.638 µM)	0.03 µg/mL (≈ 0.0191 µM)	2.0 µg/mL (≈ 1.28 µM)	C=C(NC(=O)c1csc(-c2nc3c(cc2O)-c2nc(cs2)C(=O)NC(C(C)O)C(=O)NC(=C(C)OC)c2nc(cs2)C(=O)NC2c4nc(cs4)C(=O)NC(COC(=O)c4c5c6c(cccc6n4OCOCC[Si](C)(C)C)COC(=O)C(OC4CC(C)(O)C(N(C)C)C(C)O4)C2OC5)c2nc-3cs2)n1)C(N)=O (stereo not drawn) [Example 45]
1.0 µg/mL (≈ 0.653 µM)	0.015 µg/mL (≈ 0.00979 µM)	0.5 µg/mL (≈ 0.326 µM)	C=C(NC(=O)c1csc(-c2nc3c(cc2O)-c2nc(cs2)C(=O)NC(C(C)O)C(=O)NC(=C(C)OC)c2nc(cs2)C(=O)NC2c4nc(cs4)C(=O)NC(COC(=O)c4c5c6c(cccc6n4OCCn4ccnc4)COC(=O)C(OC4CC(C)(O)C(N(C)C)C(C)O4)C2OC5)c2nc-3cs2)n1)C(N)=O (stereo not drawn) [Example 46]
2 µg/mL (≈ 1.3 µM)	0.03 µg/mL (≈ 0.0195 µM)	1.0 µg/mL (≈ 0.651 µM)	C=C(NC(=O)c1csc(-c2nc3c(cc2O)-c2nc(cs2)C(=O)NC(C(C)O)C(=O)NC(=C(C)OC)c2nc(cs2)C(=O)NC2c4nc(cs4)C(=O)NC(COC(=O)c4c5c6c(cccc6n4OCCCNC(=N)N)COC(=O)C(OC4CC(C)(O)C(N(C)C)C(C)O4)C2OC5)c2nc-3cs2)n1)C(N)=O (stereo not drawn) [Example 48]
0.25 µg/mL (≈ 0.156 µM)	0.007 µg/mL (≈ 0.00437 µM)	0.5 µg/mL (≈ 0.312 µM)	C=C(NC(=O)c1csc(-c2nc3c(cc2O)-c2nc(cs2)C(=O)NC(C(C)O)C(=O)NC(=C(C)OC)c2nc(cs2)C(=O)NC2c4nc(cs4)C(=O)NC(COC(=O)c4c5c6c(cccc6n4OCCCNS(=O)(=O)N(C)C)COC(=O)C(OC4CC(C)(O)C(N(C)C)C(C)O4)C2OC5)c2nc-3cs2)n1)C(N)=O (stereo not drawn) [Example 49]
0.125 µg/mL (≈ 0.0806 µM)	0.015 µg/mL (≈ 0.00967 µM)	0.5 µg/mL (≈ 0.322 µM)	C=C(NC(=O)c1csc(-c2nc3c(cc2O)-c2nc(cs2)C(=O)NC(C(C)O)C(=O)NC(=C(C)OC)c2nc(cs2)C(=O)NC2c4nc(cs4)C(=O)NC(COC(=O)c4c5c6c(cccc6n4OCCCN(CC)CC)COC(=O)C(OC4CC(C)(O)C(N(C)C)C(C)O4)C2OC5)c2nc-3cs2)n1)C(N)=O (stereo not drawn) [Example 51]

Structure (SMILES)	MIC (μg/mL) Enterococcus faecalis A20688 [1]	MIC (μg/mL) Streptococcus pneumoniae A28272 [2]	MIC (μg/mL) Staphylococcus aureus A15090 [3]
C=C(NC(=O)c1csc(-c2nc3c(cc2O)-c2nc(cs2)C(=O)NC(C(C)O)C(=O)NC(=C(C)OC)c2nc(cs2)C(=O)NC2c4nc(cs4)C(=O)NC(COC(=O)c4c5c6c(cccc6n4OCC(=O)OC)COC(=O)C(OC4CC(C)(O)C(N(C)C)C(C)O4)C2OC5)c2nc-3cs2)n1)C(N)=O (stereo not drawn) [Example 37]	0.06 µg/mL (≈ 0.0397 µM)	0.001 µg/mL (≈ 0.000662 µM)	0.03 µg/mL (≈ 0.0199 µM)
C=C(NC(=O)c1csc(-c2nc3c(cc2O)-c2nc(cs2)C(=O)NC(C(C)O)C(=O)NC(=C(C)OC)c2nc(cs2)C(=O)NC2c4nc(cs4)C(=O)NC(COC(=O)c4c5c6c(cccc6n4OCOP(=O)(OCC)OCC)COC(=O)C(OC4CC(C)(O)C(N(C)C)C(C)O4)C2OC5)c2nc-3cs2)n1)C(N)=O (stereo not drawn) [Example 41]	0.03 µg/mL (≈ 0.0187 µM)	0.001 µg/mL (≈ 0.000624 µM)	0.015 µg/mL (≈ 0.00935 µM)
C=C(NC(=O)c1csc(-c2nc3c(cc2O)-c2nc(cs2)C(=O)NC(C(C)O)C(=O)NC(=C(C)OC)c2nc(cs2)C(=O)NC2c4nc(cs4)C(=O)NC(COC(=O)c4c5c6c(cccc6n4OCCCNS(=O)(=O)c4cn(C)cn4)COC(=O)C(OC4CC(C)(O)C(N(C)C)C(C)O4)C2OC5)c2nc-3cs2)n1)C(N)=O (stereo not drawn) [Example 47]	0.25 µg/mL (≈ 0.153 µM)	0.015 µg/mL (≈ 0.00915 µM)	0.06 µg/mL (≈ 0.0366 µM)
C=C(NC(=O)c1csc(-c2nc3c(cc2O)-c2nc(cs2)C(=O)NC(C(C)O)C(=O)NC(=C(C)OC)c2nc(cs2)C(=O)NC2c4nc(cs4)C(=O)NC(COC(=O)c4c5c6c(cccc6n4OCCCN4CCN(C)CC4)COC(=O)C(OC4CC(C)(O)C(N(C)C)C(C)O4)C2OC5)c2nc-3cs2)n1)C(N)=O (stereo not drawn) [Example 50]	1.0 µg/mL (≈ 0.634 µM)	0.03 µg/mL (≈ 0.019 µM)	1.0 µg/mL (≈ 0.634 µM)
COC(C)=C1NC(=O)C(C(C)O)NC(=O)c2csc(n2)-c2cc(O)c(-c3nc(C(N)=O)cs3)nc2-c2csc(n2)C2COC(=O)c3c4c5c(cccc5n3OCCCS(=O)(=O)O)COC(=O)C(OC3CC(C)(O)C(N(C)C)C(C)O3)C(OC4)C(NC(=O)c3csc1n3)c1nc(cs1)C(=O)N2 (stereo not drawn) [Example 53]	1.0 µg/mL (≈ 0.671 µM)	0.125 µg/mL (≈ 0.0839 µM)	0.25 µg/mL (≈ 0.168 µM)
